Data: BigSolDB 2.1

C=NCC#N
solubility (mole fraction)
Conditions | 278.15 K | 283.15 K | 288.15 K | 293.15 K | 298.15 K | 303.15 K | 308.15 K | 313.15 K | 318.15 K | 323.15 K
in ethanol | 0.00175 | 0.00213 | 0.00253 | 0.00303 | 0.00357 | 0.00424 | 0.00501 | 0.00595 | 0.00695 | 0.00814
in methanol | 0.00436 | 0.00516 | 0.00624 | 0.00747 | 0.00894 | 0.0107 | 0.0125 | 0.0145 | 0.0169 | 0.0196
in n-butanol | 0.000479 | 0.000578 | 0.000686 | 0.000819 | 0.000985 | 0.00115 | 0.00139 | 0.00162 | 0.00191 | 0.00224
in n-propanol | 0.00099 | 0.00125 | 0.00151 | 0.00183 | 0.00222 | 0.00266 | 0.00315 | 0.0037 | 0.00427 | 0.00499
in water | 0.00083 | 0.000998 | 0.00119 | 0.00143 | 0.00171 | 0.00198 | 0.00235 | 0.00274 | 0.0032 | 0.00371
